Assay results taken from patent US20130287705A1, “METHOD OF TREATING MUCOSAL INFLAMMATION” (MCMASTER UNIVERSITY, priority 2010, published 2013).

Legend:
[1] = system: DSS-induced colitis; test: DSS-induced colitis in mice treated with 5-HT7 antagonist; assay type: in vivo, C57BL/6 mice
[2] = system: DSS and DNBS colitis; conditions: PCPA treated mice after induction of colitis; cited from earlier work
[3] = system: splenic dendritic cells; test: Ex vivo culture of CD11c positive splenic DCs from bone-marrow reconstituted mice post-DSS; assay type: cell-based; conditions: LPS and serotonin vs LPS only
Procedure: Mice were sacrificed by cervical dislocation and spleens were excised and placed in Spleen Dissociation Medium (STEMCELL Technologies) and incubated for 30 min at room temperature. They were then strained through a 70-μm nylon mesh filter (BD Falcon) and washed with PBS supplemented with 2% fetal bovine serum (FBS) and 1 mmol/L EDTA. Splenic DCs were isolated using a CD11c^+ isolation kit (EasySep®, STEMCELL Technologies) according to the manufacturer's guidelines.
DCs isolated using CD11c positive selection were incubated at 1×10^6 cells per mL for 24 hours at 37° C. with or without 100 ng/mL LPS (Sigma-Aldrich) in RPMI 1640 supplemented with 10% FBS, 100 U/mL penicillin, 100 μg/mL streptomycin, and 50 μM 2-mercaptoethanol (Invitrogen Life Technologies). Supernatents were collected after 24 hours and analyzed for cytokine levels using ELISA kits for murine IL-12p40, IL-1β, and IL-6 (Quantikine Murine; R&D Systems, Minneapolis, Minn., USA).
6-8 week old male recipient C57BL/6 mice (Taconic) were irradiated with two doses of 5.5 Gy 48 hours apart administered via a ^137Cs γ-irradiation source (Gamma Cell 40; Nordian, Kanata, ON, Canada). Bone marrow cells (no fewer than 5×10^4) were harvested from femurs and tibiae of donor mice (5-HT7^+/+) and 5-HT7^−/− and given via tail vein injection to recipient mice within two hours of the second irradiation exposure. […]

[4] = system: dendritic cells; conditions: dendritic cells from TPH1-/- mice in DSS-colitis, stimulation with 5-HT; cited from earlier work

SMILES: CC1CCN(CC[C@H]2CCCN2S(=O)(=O)c2cccc(O)c2)CC1.Cl [SB-269970, (2R)-1-[(3-Hydroxyphenyl)sulfonyl]-2-[2-(4-methyl-1-piperidinyl)ethyl]pyrrolidinehydrochloride]
- colitis severity (macroscopic damage) ([1]; 40 mg/kg i.p., day 5 post-DSS induction, compared to controls): significantly lower
- histological scores ([1]; 40 mg/kg i.p., day 5 post-DSS induction, compared to controls, FIG. 1C): significantly less severe
- myeloperoxidase (MPO) activity in colonic tissue ([1]; 40 mg/kg i.p., post-DSS, FIG. 2A): significantly lower
- production of IL-1β in colonic tissue ([1]; 40 mg/kg i.p., post-DSS, FIG. 2B): lower production
- production of TNF-α in colonic tissue ([1]; 40 mg/kg i.p., post-DSS, FIG. 2C): lower production
- production of IL-6 in colonic tissue ([1]; 40 mg/kg i.p., post-DSS, FIG. 2D): lower production
- Clinical disease activity scores (fecal blood and consistency, and weight loss) ([1]; 40 mg/kg intraperitoneally, days 4 and 5 post-DSS administration, vs vehicle (saline), FIG. 1A): significantly lower

SMILES: NC(Cc1ccc(Cl)cc1)C(=O)O (racemic) [PCPA, para-chloro-D, L-phenylalanine]
- onset of colitis [2]: Delayed onset
- pro-inflammatory cytokine production [2]: down-regulation
- severity of colitis [2]: decreased severity

SMILES: NCCc1c[nH]c2ccc(O)cc12 [serotonin, 5-hydroxytryptamine]
- IL-1β production ([3]; DCs from mice reconstituted with wild-type BMC, FIG. 9): significantly up-regulated
- increase in IL-1β production ([3]; DCs from spleens of transgenic mice (5-HT7-/- BMC)): not seen
- IL-12 production [4]: restored
